The source of these data is US11617723B2, “Composition for hepatic arterial chemoembolization using human serum albumin nanoparticles carrying anticancer agent, and method for producing same” (SOGANG UNIVERSITY RESEARCH FOUNDATION, priority 2016, dated 2023).

SMILES strings stand for the structures.

This series can be described thus: In vitro drug release behavior (dialysis membrane in phosphate buffer saline, 37° C.). In kind it is physicochemical. The settings on record: 2000 Da dialysis membrane, PBS, 5 mg Adriamycin, FIG. 6. Here is the method:
In addition, the human serum albumin nanoparticles and lipiodol, which is an embolic material, are mixed in various ratios using the same method as that used in hepatic arterial chemoembolization to be changed into an emulsion form, and the released Adriamycin is quantitatively analyzed to measure drug release behaviors.
To analyze Adriamycin released from the Adriamycin-bound human serum albumin nanoparticles, 1 mL (Adriamycin content: 5 mg) of each of the prepared samples is injected into a 2000 Da dialysis membrane and completely sealed. The resulting structure is added to a tube containing 10 mL of phosphate buffer saline and shaken at 37° C., and the dialysis membrane is transferred to a tube containing 10 mL of phosphate buffer saline at a predetermined time point to obtain each sample every time point. Groups of prepared samples are as follows:
Group 1.—free Adriamycin in phosphate buffer saline (free DOX (PBS)) or contrast media (free DOX(Pamiray)) • free Adriamycin & lipiodol with volume ratio of 1:4 (free DOX (1:4)) • human serum albumin nanoparticles carrying Adriamycin in phosphate buffered saline (DOX-HSA-NPs (PBS)) or a contrast medium (DOX-HSA-NPs (Pamiray)) • human serum albumin nanoparticles carrying Adriamycin & lipiodol in a volume ratio of 1:4 (DOX-HSA-NPs (1:4)) […]

As for `COc1cccc2c1C(=O)c1c(O)c3c(c(O)c1C2=O)C[C@@](O)(C(=O)CO)C[C@@H]3O[C@H]1C[C@H](N)[C@H](O)[C@H](C)O1` [free DOX, Adriamycin], the “time of most release of the drug” value was at most 3 h.
